The values below come from patent publication US6531573B1, “Antifungal and antibacterial peptides” (Trustees of Boston University, priority 1997, dated 2003).

For one assay, the target named is T1, Clostripain (Hathewaya histolytica, UniProt P09870).
T1 construct: purchased Sigma Chemical Corp., St. Louis, Mo
Nature of the assay: Clostripain inhibition. Type of assay: biochemical. Particulars: endopeptidase of Clostridium histolyticum. The procedure: Clostripain from Clostridium histolyticum (Sigma Chemical Corp., St. Louis, Mo.) is dissolved in deionized water to a concentration of 1 mg/ml (300 units/mg) and activated with the addition of 10 mmol/L DTT. To measure its hydrolytic activity, clostripain ( 6 units) is added to […] Hepes buffer, pH 7.5, containing 80 μmol/L BAPNA (benzoyl-arginine-p-nitroanilide), together with 5.6 μmol/L of histatin peptide inhibitor. As controls, assays are performed in the absence of any histatin peptide inhibitor. The activity is monitored continuously at 405 nm using a Molecular Devices Vmax microtitre plate reader. The activities are determined from the maximum rates of substrate hydrolysis. Assays are done in duplicate, and the means normalized to the controls.

In the next assay the test system is P. gingivalis 381. The conditions noted are these: cited from earlier work.

T1 sequence (P09870 191-526): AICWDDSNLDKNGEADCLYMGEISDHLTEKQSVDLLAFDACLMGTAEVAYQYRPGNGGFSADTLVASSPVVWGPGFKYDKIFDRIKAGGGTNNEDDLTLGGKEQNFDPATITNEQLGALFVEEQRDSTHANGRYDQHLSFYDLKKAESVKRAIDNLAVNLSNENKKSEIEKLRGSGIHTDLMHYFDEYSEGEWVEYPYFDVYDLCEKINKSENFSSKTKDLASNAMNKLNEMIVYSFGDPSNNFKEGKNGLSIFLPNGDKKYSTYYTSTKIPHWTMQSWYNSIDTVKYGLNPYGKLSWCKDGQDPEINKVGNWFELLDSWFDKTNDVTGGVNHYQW
T1 sequence (P09870 51-181): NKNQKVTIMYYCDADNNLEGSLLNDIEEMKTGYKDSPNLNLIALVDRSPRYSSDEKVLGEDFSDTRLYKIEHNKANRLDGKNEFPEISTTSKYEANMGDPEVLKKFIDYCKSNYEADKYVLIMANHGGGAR

Take histatin 5: the “inhibition of clostripain (in words)” value against Clostripain is given as “can be inhibited”. In addition, in the assay with P. gingivalis 381, the “concentration giving complete hemagglutination inhibition” value is 5 nmol/mL and the “inhibition of hemagglutination (in words)” value is on record as “inhibit hemagglutination”.
